Patent publication US9845322B2 (Hoffmann-La Roche Inc., priority 2016, dated 2017)

Tested on: HBsAg secretion in HepG2.2.15 cells
Test: HBsAg assay (chemiluminescence immunoassay of secreted HBsAg in culture supernatant)
Type: cell-based, HBV
Conditions: HepG2.2.15 cells; concentration at which HBsAg secretion was reduced by 50% compared to the no drug control; read-out: IC50 (HBsAg assay)
Summary of the method: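 IC50 taken from dose-response curves as the concentration halving secreted HBsAg relative to DMSO control. Measured by chemiluminescence immunoassay of culture supernatant from constitutively HBV-expressing HepG2.2.15 cells, seeded at 1.5×10^4/well in duplicate and exposed to three-fold serial compound dilutions at 1% final DMSO.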

For `CC1c2cnc(-c3ncccn3)nc2CCN1c1cc(F)c(F)c(OCCCS(C)(=O)=O)c1` (single isomer, unassigned; (+)) [Example 48, (+)-6-[3,4-difluoro-5-(3-methylsulfonylpropoxy)phenyl]-5-methyl-2-pyrimidin-2-yl-7,8-dihydro-5H-pyrido[4,3-d]pyrimidine], which IC50 is on record?
The IC50 was 0.184 µM.

How did the IC50 turn out when `CC1c2cnc(-c3ccccn3)nc2CCN1c1ccc([N+](=O)[O-])cc1` (stereo not drawn) [Example 1, 5-methyl-6-(4-nitrophenyl)-2-(2-pyridyl)-7,8-dihydro-5H-pyrido[4,3-d]pyrimidine] was run?
The IC50 was 0.186 µM.

For `CCCC1c2cnc(-c3ccccn3)nc2CCN1c1cc(F)c(F)c(OC)c1` (stereo not drawn) [Example 12, 6-(3,4-difluoro-5-methoxy-phenyl)-5-propyl-2-(2-pyridyl)-7,8-dihydro-5H-pyrido[4,3-d]pyrimidine], which IC50 is on record?
Its IC50 is 7.49 µM.

For `COc1cc(N2CCc3nc(-c4ncccn4)ncc3C2C)cc(F)c1F` (single isomer, unassigned; (+)) [Example 16, (+)-6-(3,4-difluoro-5-methoxy-phenyl)-5-methyl-2-pyrimidin-2-yl-7,8-dihydro-5H-pyrido[4,3-d]pyrimidine], which IC50 is on record?
Its IC50 is 1.52 µM.

How did the IC50 turn out when `CC1c2cnc(-c3ncccn3)nc2CCN1c1cc(F)c(F)c(OCCCS(C)(=O)=O)c1` (single isomer, unassigned; (-)) [Example 49, (−)-6-[3,4-difluoro-5-(3-methylsulfonylpropoxy)phenyl]-5-methyl-2-pyrimidin-2-yl-7,8-dihydro-5H-pyrido[4,3-d]pyrimidine] was run?
The IC50 was 0.034 µM.

With `COc1cc(N2CCc3nc(-c4ccccn4)ncc3C2C)cc(F)c1F` (single isomer, unassigned; (-)) [Example 7, (−)-6-(3,4-difluoro-5-methoxy-phenyl)-5-methyl-2-(2-pyridyl)-7,8-dihydro-5H-pyrido[4,3-d]pyrimidine] as the compound, how does the IC50 read?
The IC50 was 0.012 µM.

`CC1c2cnc(-c3ncccn3)nc2CCN1c1cc(F)c(F)c(OCCCCCCN)c1` (single isomer, unassigned; (+)) [Example 61, (+)-6-[2,3-difluoro-5-[5-methyl-2-pyrimidin-2-yl-7,8-dihydro-5H-pyrido[4,3-d]pyrimidin-6-yl]phenoxy]hexan-1-amine] was tested. Which IC50 did it give?
The IC50 was 3.32 µM.

`COc1cc(F)nc(N2CCc3nc(-c4ncccn4)ncc3C2C)c1` (single isomer, unassigned; (-)) [Example 138, (−)-6-(6-fluoro-4-methoxy-2-pyridyl)-5-methyl-2-pyrimidin-2-yl-7,8-dihydro-5H-pyrido[4,3-d]pyrimidine] was tested. Which IC50 did it give?
Its IC50 is 0.011 µM.

With `CC1c2cnc(-c3ncccn3)nc2CCN1c1cc(O)c(F)c(F)c1` (single isomer, unassigned; (+)) [Example 46, (+)-2,3-difluoro-5-(5-methyl-2-pyrimidin-2-yl-7,8-dihydro-5H-pyrido[4,3-d]pyrimidin-6-yl)phenol] as the compound, how does the IC50 read?
Its IC50 is 8.17 µM.

Same assay, conditions: Hepatitis B virus, HepG2.2.15, HepG2.2.15 cells; concentration at which HBsAg secretion was reduced by 50% compared to the no drug control; read-out: IC50 (HBsAg assay)

`COCCCN(C)C(=O)c1cc(F)cc(N2CCc3nc(-c4ncccn4)ncc3C2C)c1` (stereo not drawn) [Example 178, 3-fluoro-N-(3-methoxypropyl)-N-methyl-5-(5-methyl-2-pyrimidin-2-yl-7,8-dihydro-5H-pyrido[4,3-d]pyrimidin-6-yl)benzamide] was tested. Which IC50 did it give?
The IC50 was 0.123 µM.

Which IC50 does the source give for `CC1c2cnc(-c3ncccn3)nc2CCN1c1cc(F)c(F)c(OCCC2CNC2)c1` (stereo not drawn) [Example 116, 6-[3-[2-(azetidin-3-yl)ethoxy]-4,5-difluoro-phenyl]-5-methyl-2-pyrimidin-2-yl-7,8-dihydro-5H-pyrido[4,3-d]pyrimidine] here?
Its IC50 is 0.902 µM.

With `CC1c2cnc(-c3ncccn3)nc2CCN1c1cc(F)c(F)c(OCCCN2CCNC2=O)c1` (stereo not drawn) [Example 113, 1-[3-[2,3-difluoro-5-(5-methyl-2-pyrimidin-2-yl-7,8-dihydro-5H-pyrido[4,3-d]pyrimidin-6-yl)phenoxy]propyl]imidazolidin-2-one] as the compound, how does the IC50 read?
The IC50 was 0.094 µM.

For `CC1c2cnc(-c3ncccn3)nc2CCN1c1cc(F)c(F)c(OCC(F)F)c1` (stereo not drawn) [Example 70, 6-[3-(2,2-difluoroethoxy)-4,5-difluoro-phenyl]-5-methyl-2-pyrimidin-2-yl-7,8-dihydro-5H-pyrido[4,3-d]pyrimidine], which IC50 is on record?
Its IC50 is 0.026 µM.

Which IC50 does the source give for `CC1c2cnc(-c3ncccn3)nc2CCN1c1cc(N2CCOCC2)cc(F)n1` (stereo not drawn) [Example 202, 4-[2-fluoro-6-(5-methyl-2-pyrimidin-2-yl-7,8-dihydro-5H-pyrido[4,3-d]pyrimidin-6-yl)-4-pyridyl]morpholine] here?
Its IC50 is 0.013 µM.

`CC1c2cnc(-c3ncccn3)nc2CCN1c1cc(F)c(F)c(OCCC(NC(=O)OC(C)(C)C)C(=O)O)c1` (stereo not drawn) [Example 103, 2-(tert-butoxycarbonylamino)-4-[2,3-difluoro-5-(5-methyl-2-pyrimidin-2-yl-7,8-dihydro-5H-pyrido[4,3-d]pyrimidin-6-yl)phenoxy]butanoic acid] was tested. Which IC50 did it give?
The IC50 was 2.16 µM.

Which IC50 does the source give for `CC1c2cnc(-c3ncccn3)nc2CCN1c1cc(F)cc(N2CCNCC2)n1` (stereo not drawn) [Example 209, 6-(4-fluoro-6-piperazin-1-yl-2-pyridyl)-5-methyl-2-pyrimidin-2-yl-7,8-dihydro-5H-pyrido[4,3-d]pyrimidine] here?
The IC50 was 0.649 µM.

For `CC1c2cnc(-c3ccccn3)nc2CCN1c1cc(F)cc(N2CCNC(=O)C2)n1` (stereo not drawn) [Example 223, 4-[4-fluoro-6-[5-methyl-2-(2-pyridyl)-7,8-dihydro-5H-pyrido[4,3-d]pyrimidin-6-yl]-2-pyridyl]piperazin-2-one], which IC50 is on record?
Its IC50 is 0.015 µM.

How did the IC50 turn out when `COc1cc(N2CCc3nc(-c4ncccn4)ncc3C2C)cc(F)c1I` (stereo not drawn) [Example 111, 6-(3-fluoro-4-iodo-5-methoxy-phenyl)-5-methyl-2-pyrimidin-2-yl-7,8-dihydro-5H-pyrido[4,3-d]pyrimidine] was run?
The IC50 was 0.041 µM.

With `CC1c2cnc(-c3ncccn3)nc2CCN1c1cc(F)c(F)c(OCCC[S+](C)[O-])c1` (stereo not drawn) [Example 106, 6-[3,4-difluoro-5-(3-methylsulfinylpropoxy)phenyl]-5-methyl-2-pyrimidin-2-yl-7,8-dihydro-5H-pyrido[4,3-d]pyrimidine] as the compound, how does the IC50 read?
Its IC50 is 0.208 µM.

For `COCCCNS(=O)(=O)c1cc(F)cc(N2CCc3nc(-c4ncccn4)ncc3C2C)c1` (stereo not drawn) [Example 182, 3-fluoro-N-(3-methoxypropyl)-5-(5-methyl-2-pyrimidin-2-yl-7,8-dihydro-5H-pyrido[4,3-d]pyrimidin-6-yl)benzenesulfonamide], which IC50 is on record?
Its IC50 is 2.24 µM.

How did the IC50 turn out when `CC1c2cnc(-c3ncccn3)nc2CCN1c1cc(OCC2CC2)cc(F)n1` (stereo not drawn) [Example 152, 6-[4-(cyclopropylmethoxy)-6-fluoro-2-pyridyl]-5-methyl-2-pyrimidin-2-yl-7,8-dihydro-5H-pyrido[4,3-d]pyrimidine] was run?
Its IC50 is 0.011 µM.

`Cc1cc(F)cc(N2CCc3nc(-c4ncccn4)ncc3C2C)c1` (stereo not drawn) [Example 134, 6-(3-fluoro-5-methyl-phenyl)-5-methyl-2-pyrimidin-2-yl-7,8-dihydro-5H-pyrido[4,3-d]pyrimidine] was tested. Which IC50 did it give?
The IC50 was 0.048 µM.

Which IC50 does the source give for `CC1c2cnc(-c3ncccn3)nc2CCN1c1cc(F)c(F)c(OCCCNC(=O)OC(C)(C)C)c1` (stereo not drawn) [Example 90, tert-butyl N-[3-[2,3-difluoro-5-(5-methyl-2-pyrimidin-2-yl-7,8-dihydro-5H-pyrido[4,3-d]pyrimidin-6-yl)phenoxy]propyl]carbamate] here?
Its IC50 is 0.022 µM.

Same assay, conditions: Hepatitis B virus, HepG2.2.15, read-out: IC50 (HBsAg assay)

For `COc1cc(N2CCc3nc(-c4ncccn4)ncc3C2C)cc(F)c1C#N` (stereo not drawn) [Example 22, 2-fluoro-6-methoxy-4-(5-methyl-2-pyrimidin-2-yl-7,8-dihydro-5H-pyrido[4,3-d]pyrimidin-6-yl)benzonitrile], which IC50 is on record?
Its IC50 is 0.027 µM.
